Measurements as given in US10196386B2, “Compounds having muscarinic receptor antagonist and beta2 adrenergic receptor agonist activity” (priority 2016, dated 2019).
pIC50: −log10 of the molar value.

Columns and labels:
Human M3 receptor = target: T1, Human M3 receptor (Homo sapiens, UniProt P20309); assay: biochemical; assay type: binding; conditions: read-out: M3 Range
T1 construct: purchased Perkin Elmer

Human β2 adrenoceptor = target: T2, Human β2 adrenoceptor (Homo sapiens, UniProt P07550); assay: β2 adrenoceptor radioligand binding assay
T2 construct: purchased Perkin Elmer
T2 sequence (P07550 whole entry): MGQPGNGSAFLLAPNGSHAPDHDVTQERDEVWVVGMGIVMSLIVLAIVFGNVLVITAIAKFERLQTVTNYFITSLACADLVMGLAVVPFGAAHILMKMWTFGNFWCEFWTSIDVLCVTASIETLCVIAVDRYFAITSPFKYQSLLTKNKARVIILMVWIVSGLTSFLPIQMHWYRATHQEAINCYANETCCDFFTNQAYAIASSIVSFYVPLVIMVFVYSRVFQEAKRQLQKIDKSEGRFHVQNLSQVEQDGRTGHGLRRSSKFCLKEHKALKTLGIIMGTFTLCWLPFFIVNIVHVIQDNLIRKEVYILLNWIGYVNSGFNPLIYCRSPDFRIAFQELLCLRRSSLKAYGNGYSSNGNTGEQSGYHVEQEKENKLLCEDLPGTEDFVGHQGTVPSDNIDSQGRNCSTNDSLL
Description: β2 Adrenoceptor Radioligand Binding Assay
Human β2 adrenoceptor membranes (7.5 ug/well) from Perkin Elmer were incubated with 0.3 nM 125-I Cyanopindolol with or without test compounds, or a saturating concentration of s-propranolol (2 μM) for the determination of non-specific binding. The assay was carried out in 96-well polypropylene plates in a volume of 200 ul. The assay buffer used was 25 mM HEPES, 0.5% BSA (w/v), 1 mM EDTA, 0.02% ascorbic acid (v/v), (pH 7.4). The final assay concentration of DMSO was 0.5% (v/v). The plates were sealed and incubated for 1 h at room temperature on an orbital shaker (slow speed). Membranes were harvested onto 96-well unifilter GF/C filter plates pre-treated with 0.5% polyethyleneimine (v/v), using a filter manifold, washed six times with 200 ul of wash buffer containing 10 mM HEPES and 500 mM NaCl. The plates were dried before addition of 50 μl of microscint-0, sealed then read in a Trilux Microbeta scintillation counter. IC50 values are determined from competition curves using a non-linear curve fitting program. Ki values were calculated from IC50 values by the Cheng and Prusoff equation.

T1 sequence (P20309 whole entry): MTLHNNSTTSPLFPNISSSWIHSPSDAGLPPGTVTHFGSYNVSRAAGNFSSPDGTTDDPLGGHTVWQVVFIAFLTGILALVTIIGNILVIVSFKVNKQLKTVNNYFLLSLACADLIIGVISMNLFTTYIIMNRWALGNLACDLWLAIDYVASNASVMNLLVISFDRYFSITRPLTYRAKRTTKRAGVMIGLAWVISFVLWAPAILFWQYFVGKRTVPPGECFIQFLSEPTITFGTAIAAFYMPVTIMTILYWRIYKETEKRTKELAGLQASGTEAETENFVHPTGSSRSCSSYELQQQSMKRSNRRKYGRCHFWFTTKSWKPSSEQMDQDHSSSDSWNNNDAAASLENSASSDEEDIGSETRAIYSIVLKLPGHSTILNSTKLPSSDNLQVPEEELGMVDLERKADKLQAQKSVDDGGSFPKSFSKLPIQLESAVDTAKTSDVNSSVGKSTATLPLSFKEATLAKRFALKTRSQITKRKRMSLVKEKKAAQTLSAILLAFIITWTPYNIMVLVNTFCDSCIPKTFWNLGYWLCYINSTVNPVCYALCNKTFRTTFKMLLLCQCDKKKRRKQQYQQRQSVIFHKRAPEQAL

SMILES | pIC50 (Human M3 receptor) | pIC50 (Human β2 adrenoceptor)
O=C(NCc1ccc(-c2cccc([C@](O)(C(=O)OCC3CCN(Cc4ccccc4)CC3)c3ccccc3)c2)s1)c1ccc(CNC[C@H](O)c2ccc(O)c3[nH]c(=O)ccc23)cc1Cl [Compound 1, (1-Benzylpiperidin-4-yl)methyl (S)-2-(3-(5-((2-chloro-4-((((R)-2-hydroxy-2-(8-hydroxy-2-oxo-1,2-dihydroquinolin-5-yl)ethyl)amino)methyl)benzamido-)methyl)thiophen-2-yl)phenyl)-2-hydroxy-2-phenylacetate] | 8.52 to 9.52 | > 9.52
O=C(NCc1ccc(-c2cccc([C@](O)(C(=O)OCC3CCN(Cc4ccccc4)CC3)c3ccccc3)c2)s1)c1ccc(CNC[C@H](O)c2ccc(O)c3[nH]c(=O)ccc23)cc1 [Compound 1A, (1-Benzylpiperidin-4-yl)methyl (S)-2-hydroxy-2-(3-(5-((4-((((R)-2-hydroxy-2-(8-hydroxy-2-oxo-1,2-dihydroquinolin-5-yl)ethyl)amino)methyl)benzamido)-methyl)thiophen-2-yl)phenyl)-2-phenylacetate] | 8.52 to 9.52 | > 9.52
COc1cc(C(=O)NCc2ccc(-c3cccc([C@](O)(C(=O)OCC4CCN(Cc5ccccc5)CC4)c4ccccc4)c3)s2)ccc1CNC[C@H](O)c1ccc(O)c2[nH]c(=O)ccc12 [Compound 1B, (1-Benzylpiperidin-4-yl)methyl (S)-2-hydroxy-2-(3-(5-((4-((((R)-2-hydroxy-2-(8-hydroxy-2-oxo-1,2-dihydroquinolin-5-yl)ethyl)amino)methyl)-3-methoxybenzamido)methyl)thiophen-2-yl)phenyl)-2-phenylacetate] | 8.52 to 9.52 | > 9.52
COc1cc(CNC[C@H](O)c2ccc(O)c3[nH]c(=O)ccc23)ccc1C(=O)NCc1ccc(-c2cccc([C@](O)(C(=O)OCC3CCN(Cc4ccccc4)CC3)c3ccccc3)c2)s1 [Compound 1C, (1-Benzylpiperidin-4-yl)methyl (S)-2-hydroxy-2-(3-(5-((4-((((R)-2-hydroxy-2-(8-hydroxy-2-oxo-1,2-dihydroquinolin-5-yl)ethyl)amino)methyl)-2-methoxybenzamido)methyl)thiophen-2-yl)phenyl)-2-phenylacetate] | 8.52 to 9.52 | 8.52 to 9.52
COc1cc(C(=O)NCc2ccc(-c3cccc([C@](O)(C(=O)OCC4CCN(Cc5ccccc5)CC4)c4ccccc4)c3)s2)c(Cl)cc1CNC[C@H](O)c1ccc(O)c2[nH]c(=O)ccc12 [Compound 1D, (1-Benzylpiperidin-4-yl)methyl (S)-2-(3-(5-((2-chloro-4-((((R)-2-hydroxy-2-(8-hydroxy-2-oxo-1,2-dihydroquinolin-5-yl)ethyl)amino)methyl)-5-methoxybenzamido)methyl)thiophen-2-yl)phenyl)-2-hydroxy-2-phenylacetate] | 8.52 to 9.52 | > 9.52
COc1cc(C(=O)NCc2ccc(-c3cccc([C@](O)(C(=O)OCC4CCN(Cc5ccccc5)CC4)c4ccccc4)c3)s2)c(F)cc1CNC[C@H](O)c1ccc(O)c2[nH]c(=O)ccc12 [Compound 1E, (1-Benzylpiperidin-4-yl)methyl (S)-2-(3-(5-((2-fluoro-4-((((R)-2-hydroxy-2-(8-hydroxy-2-oxo-1,2-dihydroquinolin-5-yl)ethyl)amino)methyl)-5-methoxybenzamido)methyl)thiophen-2-yl)phenyl)-2-hydroxy-2-phenylacetate] | 8.52 to 9.52 | > 9.52
O=C(NCc1ccc(-c2cccc([C@](O)(C(=O)OCC3CCN(Cc4ccccc4)CC3)c3ccccc3)c2)s1)c1ccc(CNC[C@H](O)c2ccc(O)c3[nH]c(=O)ccc23)c(C(F)(F)F)c1 [Compound 1F, (1-Benzylpiperidin-4-yl)methyl (S)-2-hydroxy-2-(3-(5-((4-((((R)-2-hydroxy-2-(8-hydroxy-2-oxo-1,2-dihydroquinolin-5-yl)ethyl)amino)methyl)-3-(trifluoromethyl)benzamido)methyl)thiophen-2-yl)phenyl)-2-phenylacetate] | < 8.52 | 8.52 to 9.52
O=C(NCc1ccc(-c2cccc([C@](O)(C(=O)OCC3CCN(Cc4ccccc4)CC3)c3ccccc3)c2)s1)c1ccc(CNC[C@H](O)c2ccc(O)c3[nH]c(=O)ccc23)cc1F [Compound 1G, (1-Benzylpiperidin-4-yl)methyl (S)-2-(3-(5-((2-fluoro-4-((((R)-2-hydroxy-2-(8-hydroxy-2-oxo-1,2-dihydroquinolin-5-yl)ethyl)amino)methyl)-benzamido)methyl)thiophen-2-yl)phenyl)-2-hydroxy-2-phenylacetate] | 8.52 to 9.52 | > 9.52
O=C(NCc1ccc(-c2cccc([C@](O)(C(=O)OCC3CCN(Cc4ccccc4)CC3)c3ccccc3)c2)s1)c1ccc(CCNC[C@H](O)c2ccc(O)c3[nH]c(=O)ccc23)cc1 [Compound 1H, (1-Benzylpiperidin-4-yl)methyl (S)-2-hydroxy-2-(3-(5-((4-(2-(((R)-2-hydroxy-2-(8-hydroxy-2-oxo-1,2-dihydroquinolin-5-yl)ethyl)amino)ethyl)-benzamido)methyl)thiophen-2-yl)phenyl)-2-phenylacetate] | 8.52 to 9.52 | 8.52 to 9.52
CCOc1cc(C(=O)NCc2ccc(-c3cccc([C@](O)(C(=O)OCC4CCN(Cc5ccccc5)CC4)c4ccccc4)c3)s2)ccc1CNC[C@H](O)c1ccc(O)c2[nH]c(=O)ccc12 [Compound 1I, (1-Benzylpiperidin-4-yl)methyl (S)-2-(3-(5-((3-ethoxy-4-((((R)-2-hydroxy-2-(8-hydroxy-2-oxo-1,2-dihydroquinolin-5-yl)ethyl)amino)methyl)-benzamido)methyl)thiophen-2-yl)phenyl)-2-hydroxy-2-phenylacetate] | 8.52 to 9.52 | 8.52 to 9.52
O=C(NCc1ccc(-c2cccc([C@](O)(C(=O)OCC3CCN(Cc4ccccc4)CC3)c3ccccc3)c2)s1)c1ccc(CNC[C@H](O)c2ccc(O)c3[nH]c(=O)ccc23)c(F)c1 [Compound 1J, (1-Benzylpiperidin-4-yl)methyl (S)-2-(3-(5-((3-fluoro-4-((((R)-2-hydroxy-2-(8-hydroxy-2-oxo-1,2-dihydroquinolin-5-yl)ethyl)amino)methyl)-benzamido)methyl)thiophen-2-yl)phenyl)-2-hydroxy-2-phenylacetate] | 8.52 to 9.52 | > 9.52
COc1c(CNC[C@H](O)c2ccc(O)c3[nH]c(=O)ccc23)ccc(C(=O)NCc2ccc(-c3cccc([C@](O)(C(=O)OCC4CCN(Cc5ccccc5)CC4)c4ccccc4)c3)s2)c1F [Compound 1K, (1-Benzylpiperidin-4-yl)methyl (S)-2-(3-(5-((2-fluoro-4-((((R)-2-hydroxy-2-(8-hydroxy-2-oxo-1,2-dihydroquinolin-5-yl)ethyl)amino)methyl)-3-methoxybenzamido)methyl)thiophen-2-yl)phenyl)-2-hydroxy-2-phenylacetate] | 8.52 to 9.52 | > 9.52
O=C(NCc1ccc(-c2cccc([C@](O)(C(=O)OCC3CCN(Cc4ccccc4)CC3)c3ccccc3)c2)s1)c1ccc(CNC[C@H](O)c2ccc(O)c3[nH]c(=O)ccc23)nc1 [Compound 1L, (1-Benzylpiperidin-4-yl)methyl (S)-2-hydroxy-2-(3-(5-((6-((((R)-2-hydroxy-2-(8-hydroxy-2-oxo-1,2-dihydroquinolin-5-yl)ethyl)amino)methyl)-nicotinamido)methyl)thiophen-2-yl)phenyl)-2-phenylacetate] | 8.52 to 9.52 | > 9.52
COc1cc(C(=O)NCc2ccc(-c3cccc([C@](O)(C(=O)OCC4CCN(Cc5ccccc5)CC4)c4ccccc4)c3)s2)cc(F)c1CNC[C@H](O)c1ccc(O)c2[nH]c(=O)ccc12 [Compound 1M, (1-Benzylpiperidin-4-yl)methyl (S)-2-(3-(5-((3-fluoro-4-((((R)-2-hydroxy-2-(8-hydroxy-2-oxo-1,2-dihydroquinolin-5-yl)ethyl)amino)methyl)-5-methoxybenzamido)methyl)thiophen-2-yl)phenyl)-2-hydroxy-2-phenylacetate] | 8.52 to 9.52 | 8.52 to 9.52
CN1CCC(OC(=O)[C@](O)(c2ccccc2)c2cccc(-c3ccc(CNC(=O)c4ccc(CNC[C@H](O)c5ccc(O)c6[nH]c(=O)ccc56)cc4)s3)c2)CC1 [Compound 2, 1-Methylpiperidin-4-yl (S)-2-hydroxy-2-(3-(5-((4-((((R)-2-hydroxy-2-(8-hydroxy-2-oxo-1,2-dihydroquinolin-5-yl)ethyl)amino)methyl)benzamido)-methyl)thiophen-2-yl)phenyl)-2-phenylacetate] | – | > 9.52
O=C(NCc1ccc(-c2cccc([C@](O)(C(=O)OC[C@H]3CCCN(Cc4ccccc4)C3)c3ccccc3)c2)s1)c1ccc(CNC[C@H](O)c2ccc(O)c3[nH]c(=O)ccc23)cc1 [Compound 2C, ((S)-1-Benzylpiperidin-3-yl)methyl (S)-2-hydroxy-2-(3-(5-((4-((((R)-2-hydroxy-2-(8-hydroxy-2-oxo-1,2-dihydroquinolin-5-yl)ethyl)amino)-methyl)benzamido)methyl)thiophen-2-yl)phenyl)-2-phenylacetate] | – | 8.52 to 9.52
O=C(NCc1ccc(-c2cccc([C@](O)(C(=O)OC3CCN(Cc4ccccc4)CC3)c3ccccc3)c2)s1)c1ccc(CNC[C@H](O)c2ccc(O)c3[nH]c(=O)ccc23)cc1 [Compound 2F, 1-Benzylpiperidin-4-yl (S)-2-hydroxy-2-(3-(5-((4-((((R)-2-hydroxy-2-(8-hydroxy-2-oxo-1,2-dihydroquinolin-5-yl)ethyl)amino)methyl)-benzamido)methyl)thiophen-2-yl)phenyl)-2-phenylacetate] | – | > 9.52
